Assay results published in patent publication US5693617A, “Inhibitors of the 26s proteolytic complex and the 20s proteasome contained therein” (ProScript, Inc., priority 1995, dated 1997).
Non-standard residues stand in square brackets, D forms with d. Residues, ends and D or L forms follow the SMILES beside them. ξ: configuration not given here. *: point of attachment. 1Nal = N[C@@H](Cc1cccc2ccccc12)C(=O)O; 2Nal = N[CH](Cc1ccc2ccccc2c1)C(=O)O; Cha = N[C@@H](CC1CCCCC1)C(=O)O; Ile(3ξ) = CCC(C)[C@H](N)C(=O)O; Nva = CCC[C@H](N)C(=O)O; Cbz = O=C(OCc1ccccc1)*; Boc = CC(C)(C)OC(=O)*; Bn = c1ccc(C*)cc1

What was measured:
20S proteasome = biological target: T1, 20S proteasome (Oryctolagus cuniculus, UniProt G1T4Q9); experiment: Inhibition of the 20S proteasome peptidase activity (kinetic experiments); format: biochemical, Rabbit; conditions: Rabbit muscle, SDS-activated, substrate Suc-LLVY-AMC; read-out: Ki 20S
T1 sequence (G1T4Q9 60-263): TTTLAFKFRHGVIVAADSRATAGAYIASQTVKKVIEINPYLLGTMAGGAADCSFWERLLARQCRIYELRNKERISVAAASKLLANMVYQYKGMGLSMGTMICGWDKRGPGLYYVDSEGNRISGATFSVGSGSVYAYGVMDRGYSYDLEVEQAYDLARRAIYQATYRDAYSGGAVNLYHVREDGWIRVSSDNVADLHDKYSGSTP
T1 sequence (G1SU71 1-241 partner): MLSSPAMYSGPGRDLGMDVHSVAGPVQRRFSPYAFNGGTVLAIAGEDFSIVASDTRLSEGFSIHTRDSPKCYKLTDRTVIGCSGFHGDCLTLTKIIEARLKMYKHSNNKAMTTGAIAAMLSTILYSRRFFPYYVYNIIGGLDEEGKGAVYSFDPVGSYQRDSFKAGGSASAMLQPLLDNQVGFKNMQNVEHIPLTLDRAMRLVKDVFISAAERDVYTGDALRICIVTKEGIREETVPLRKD
Source text: Tables I-III summarize results from kinetic experiments that measured the inhibition of the 20S and 26S proteasomes, as well as cathepsin B and calpain, enzymes that may also be involved in muscle protein turnover. In these tables, Ki values are reported, which are dissociation constants for the equilibrium that is established when enzyme and inhibitor interact to form the enzyme:inhibitor complex.
The substances and assay conditions are briefly summarized in the footnotes to Table I. MG 101 and MG 102, also known as Calpain Inhibitor I and II, were purchased from Calbiochem as catalogue products.
(^a) Rabbit muscle. SDSactivated. Substrate: SucLLVYAMC.

[1] = test system: chymotrypsin-like activity of the proteasome; conditions: cited from earlier work; for Ki: Vinitsky et al. 1992, slow binding inhibitors
PC12 cells = conditions: Tsubuki et al. 1993; cited from earlier work

| Ki (20S proteasome) | SMILES | other results |
| --- | --- | --- |
| 104 nM | CCC(C)[C@@H](C=O)NC(=O)[C@H](CC(C)C)NC(=O)[C@H](CC(C)C)NC(=O)OCc1ccccc1 (stereo partly drawn) [MG 134] (Cbz-Leu-Leu-[Ile(3ξ)]-aldehyde) |  |
|  | CC(C)C[C@@H](C=O)NC(=O)CNC(=O)CNC(=O)OCc1ccccc1 [Z-Gly-Gly-Leu-H] (Cbz-Gly-Gly-Leu-aldehyde) | Inhibition of the chymotrypsin-like activity of the proteasome ([1]; Orlowski 1990): inhibits the chymotrypsin-like activity of the proteasome |
|  | CCOC(=O)C(=O)[C@H](Cc1ccccc1)NC(=O)[C@H](CC(C)C)NC(=O)[C@H](CC(C)C)NC(=O)OCc1ccccc1 [Z-Leu-Leu-Phe-COOEt] | Ki [1]: 53 µM |
| 4 nM | CC(C)C[C@@H](C=O)NC(=O)[C@H](CC(C)C)NC(=O)[C@H](CC(C)C)NC(=O)OCc1ccccc1 [MG 132] (Cbz-Leu-Leu-Leu-aldehyde) |  |
|  | CC(C)C[C@H](NC(=O)OCc1ccccc1)C(=O)N[C@@H](CC(C)C)C(=O)N[C@H](C=O)Cc1ccccc1 [MG 110, Z-Leu-Leu-Phe-H] (Cbz-Leu-Leu-Phe-aldehyde) | Ki [1]: 0.46 µM |
|  | CC(C)C[C@@H](C=O)NC(=O)[C@H](CC(C)C)NC(=O)[C@H](CC(C)C)NC(=O)OCc1ccccc1 [Z-Leu-Leu-Leu-H, Z-L-Leucine-L-Leucine-L-Leucinal] (Cbz-Leu-Leu-Leu-aldehyde) | Optimal concentration for initiating neurite outgrowth (PC12 cells): 30 nM |
| 24 nM | CC(C)CC(C=O)NC(=O)C(Cc1ccc2ccccc2c1)NC(=O)OCc1ccccc1 (stereo not drawn) [MG 279, Z-Nal-Leu-H] (Cbz-[2Nal]-Leu-aldehyde; configuration not given here) |  |
|  | CSCC[C@@H](C=O)NC(=O)[C@H](CC(C)C)NC(=O)[C@H](CC(C)C)NC(C)=O [Ac-LLM-H, N-acetyl-Leu-Leu-methioninal] (Ac-Leu-Leu-Met-aldehyde) | Ki [1]: 33 µM |
| 7 nM | CC(C)C[C@H](NC(=O)OCc1ccccc1)C(=O)N[C@@H](CC(C)C)C(=O)N[C@H](C=O)Cc1ccc(O)cc1 [MG 131] (Cbz-Leu-Leu-Tyr-aldehyde) |  |
| 74 nM | CC(C)C[C@H](NC(=O)OCc1ccccc1)C(=O)N[C@@H](CC(C)C)C(=O)N[C@H](C=O)CC1CCCCC1 [MG 129] (Cbz-Leu-Leu-[Cha]-aldehyde) |  |
| 47 nM | CC(C)C[C@@H](C=O)NC(=O)[C@H](CC(C)C)NC(=O)[C@H](CC(C)C)NC(=O)OC(C)(C)C [MG 155] (Boc-Leu-Leu-Leu-aldehyde) |  |
| 0.2 nM | CCC[C@@H](C=O)NC(=O)[C@H](CC(C)C)NC(=O)[C@H](Cc1cccc2ccccc12)NC(=O)OCc1ccccc1 [MG 142] (Cbz-[1Nal]-Leu-[Nva]-aldehyde) |  |
| 285 nM | CC(C)C[C@H](NC(=O)OCc1ccccc1)C(=O)N[C@@H](CC(C)C)C(=O)N[C@H](C=O)Cc1ccc(OCc2ccccc2)cc1 [MG 153] (Cbz-Leu-Leu-Tyr(Bn)-aldehyde) |  |
